Measurements taken from patent US12685781B2, “Anti-HER3 antibody-drug conjugate” (DAIICHI SANKYO COMPANY, LIMITED, priority 2014, dated 2026).

What was measured:
[1] = test system: human melanoma cell line HT-144; experiment: Antitumor test, human melanoma HT-144 in NMRI nude mice; format: in vivo, mouse; conditions: 25 mg/kg subcutaneously twice a week
Procedure: Five- to 6-week-old female NMRI nude mice having a body weight of 22 to 26 g after acclimation were used. The mice were placed in individually ventilated cages (IVC, 4 mice at maximum per cage) which were kept at room temperature and a constant humidity. After randomization, the body weights of the mice were measured every other day, and the behaviors of the animals were recorded every day.
5×10^6 cells of a human melanoma cell line HT-144 (HTB-63) from ATCC were suspended in a solution prepared from 50 uL of PBS and Matrigel (PBS: PAA #H21-002, Matrigel: BD #354230) mixed at a ratio of 1:1, and subcutaneously transplanted to the right side area of the body of each NMRI nude mouse using a 29 G needle.
The measurement of the body weights and the tumor sizes and the measurement and calculation of the tumor volumes were carried out in the same manner as Test Example 6.
At Day 22 when the tumor size reached about 150 mm^3, 80 animals were randomly divided into 8 groups on the basis of their tumor sizes. At the same day, U1-59 or the antibody-drug conjugate (3), (10), or (13) or PBS for a control group were administered into the tail vein of each animal at the following doses.
Administration group: PBS was intravenously injected once a week at the same dose as the antibody-drug conjugate.
Administration group: U1-59 was subcutaneously injected twice a week at 25 mg/kg. […]

[2] = molecular target: HER3 (Homo sapiens, UniProt P21860); experiment: HER3 binding affinity by flow cytometry on HCC1569 cells; design: host or cells: HCC1569 (human breast cancer cell line); conditions: read-out: Kd (nM), equilibrium binding affinity
Procedure: A human breast cancer cell line HCC1569 (CRL-2330) from ATCC was cultured in an RPMI1640 medium (purchased from Invitrogen Corp., containing 10% […] (manufactured by Invitrogen Corp.) and 2 mM L-glutamine (manufactured by Invitrogen Corp.)). The cells were dissociated from the culture plate using ACCUTASE® SOLUTION (Millipore Corp., SCR005) or EDTA (5 mM, phosphate buffered saline (PBS, 137 mM sodium chloride, 2.7 mM potassium chloride, 1.47 mM potassium dihydrogen phosphate, and 10.5 mM disodium hydrogen phosphate)), and the number of living cells was measured by trypan blue treatment. The same numbers of cells suspended in a fluorescence-activated cell sorting (FACS) buffer (PBS containing 3% FBS and 0.004% sodium azide) were inoculated to 96-well U-bottom plates, and the cells were precipitated by centrifugation and suspended in 100 uL of an ice-cooled antibody or antibody-drug conjugate dilution or FACS buffer. […]
U1-59, the antibody-drug conjugate (3), the antibody-drug conjugate (10), or the antibody-drug conjugate (13) was evaluated as the antibody or the antibody-drug conjugates. […]
Fluorescence signals from living cells were evaluated using Accuri C6 Flow cytometer (BD Biosciences/Accuri® Cytometers Inc., serial number 1424) and CFlow software (CFlow sampler Version 1.0.264.13). […]

Kd [2]: 1.6 nM
Substance: U1-59: anti-HER3 human antibody; heavy and light chain variable regions SEQ ID NOs: 70 and 72; produced per WO 2007/077028
day after transplantation at which group was euthanized because tumor sizes exceeded acceptable maximum level [1]: 52 days
